Assay results as given in patent US10087142B2, “Azetidine derivatives useful as modulators of cortical cathecolaminergic neurotransmission” (Integrative Research Laboratories Sweden AB, priority 2015, dated 2018).
Structures can show the parent of a compound that is named as a salt. Where two headings read alike, the source gives them in different places. Marks after values point to notes of the source that are not given here.

Tested on: monoamine transmitters (NA, DA and 5-HT)
Test: In vivo brain microdialysis of monoamines in striatum and frontal cortex
Parameters: species or system rat
Settings: rats; for response vs control in vivo at 50 µmol/kg: Rattus norvegicus, sc
From the text: The microdialysis technique (See, for instance, Collin and Ungerstedt, Microdialysis: user's guide, Carnegie Medicin, Stockholm, 1988) is a well-established technique for measuring extracellular levels of neurotransmitters (Ungerstedt, J Int Med, 1991, 230; 365-73). The microdialysis technique was used to measure the effect of compounds disclosed herein upon the efflux of monoamine transmitters (NA, DA and 5-HT) in striatum and frontal cortex in conscious, freely moving rats.
Male Sprague-Dawley rats weighing 280-320 g were used throughout the experiments. Before the experiment the animals were housed in groups, maximum five animals in each cage, with free access to water and food. The animals were housed at least one week prior to surgery and use in the experiments.
A modified version (Waters et al., J Neural Transm Gen Sect, 1994, 98(1); 39-55) of the I-shaped probe (Santiago and Westerink, N-S Arch Pharmacol, 1990, 342; 407-14) with the AN69 polyacrylonitrile/sodium methyl sulfonate copolymer (HOSPAL; o.d/i.d. 310/220 μm: dialysis membrane (Gambro, Lund, Sweden) was used in the microdialysis experiments. In the dorsal striatum, probes with an exposed length of 3 mm of dialysis membrane were used and in the prefrontal cortex the corresponding length was 2.5 mm. The rats were operated under isoflurane inhalation anesthesia while mounted into a Kopf stereotaxic instrument. Coordinates were calculated relative to bregma; dorsal striatum AP+1.0, ML±2.6, DV 6.2; Pf cortex, AP 15+3.2, ML+1.2, DV −4.08°, according to Paxinos and Watson (New York, Academic Press, 1986; FIG. 8 and FIG. 14). The dialysis probe was positioned in a burr hole under stereotaxic guidance and cemented with phosphatine dental cement (DAB Dental).
The rats were housed individually in cages for 48 h before the dialysis experiments, allowing them to recover from surgery and minimizing the risk of drug interactions with the anesthetics during the following experiments. During this period the rats had free access to food and water.
On the day of the experiment the rats were connected to a micro-perfusion pump via a swivel and were replaced in the cage where they could move freely within its confinements. The perfusion medium was a Ringer's solution containing (in mmol/I): NaCl; 140, CaCl2; 1.2, KCl; 3.0, MgCl2; 1.0 (Moghaddam and Bunney. Neurochem., 1989, 53; 652-4). The pump was set to a perfusion speed of 2 μl/min and 40 μl sample volume were collected every 20 min.
The rats were perfused for at least 40 min before sampling began. Five fractions of each 20 min were collected and the last three were used for the establishment of the baseline. After collection of baseline fractions, the pharmacological challenge to the dialysis experiment started. Test compounds were administrated by injection (s.c.) in a volume of 5 ml/kg, with 0.9% NaCl (saline) as vehicle.
The analytical method were based on two chromatographic separations dedicated for amines or acids. Two chromatographic systems shared a common auto injector with a 10-port valve and two sample loops for simultaneous injection on the two systems.
The acids were separated by reversed phase chromatography while the amines were separated by reversed phase ion pairing chromatography preceded by a reverse phase separation in a column switching configuration. Three separation columns (Luna C18 (2), dp 3 μm, 2 mm i.d., Phenomenex) of different lengths were used. Electrochemical detection was accomplished on glassy carbon electrodes (MF-1000, Bioanalytical Systems, Inc.)
The aqueous mobile phase (0.6 ml/min) for the acid system contained citric acid (40 mM, dipotassium hydrogen phosphate 10 mM, methanol 8-11% (v/v) and EDTA 0.1 mM. Column length was 30 mm and detection potential relative to Ag/AgCl reference was 0.74V. […]

[1] = 50 μmol/kg s.c., frontal cortex dialysate, read-out: 5-HT FC ± SEM, maximum effect compared to baseline
[2] = 50 μmol/kg s.c., frontal cortex dialysate, read-out: DA FC ± SEM, maximum effect compared to baseline
[3] = 50 μmol/kg s.c., frontal cortex dialysate, read-out: NA FC ± SEM, maximum effect compared to baseline
[4] = 50 μmol/kg s.c., striatum dialysate, read-out: 5-HT Stri ± SEM, maximum effect compared to baseline
[5] = 50 μmol/kg s.c., striatum dialysate, read-out: DA Stri ± SEM, maximum effect compared to baseline
[6] = 16.7 μmol/kg s.c., frontal cortex dialysate, Fumarate Salt
[7] = 16.7 μmol/kg s.c., striatum dialysate, Fumarate Salt

Row | Compound | response vs control in vivo at 50 µmol/kg [1] | response vs control in vivo at 50 µmol/kg [2] | response vs control in vivo at 50 µmol/kg [3] | response vs control in vivo at 50 µmol/kg [4] | response vs control in vivo at 50 µmol/kg [5] | 5-HT FC ± SEM, maximum effect compared to baseline [6] | DA FC ± SEM, maximum effect compared to baseline [6] | NA FC ± SEM, maximum effect compared to baseline [6] | 5-HT Stri ± SEM, maximum effect compared to baseline [7] | DA Stri ± SEM, maximum effect compared to baseline [7] | NA Stri ± SEM, maximum effect compared to baseline [7] | NA Stri ± SEM, maximum effect compared to baseline (50 μmol/kg s.c., striatum dialysate)
1 | Fc1cc(C(F)C2CNC2)cc(F)c1F (stereo not shown) [Example 12, 3-[Fluoro(3,4,5-Trifluorophenyl)Methyl]Azetidine Oxalate Salt] | 322 ± 4% | 252 ± 70% | 214 ± 28% | 359 ± 105% | 131% |  |  |  |  |  |  | 
2 | Fc1cc(F)cc(C(F)C2CNC2)c1.O=C(O)/C=C/C(=O)O (single isomer, unassigned; (+)) [Example 4, (+)-3-[(3,5-Difluorophenyl)(Fluoro)Methyl]Azetidine Fumarate Salt] |  |  |  |  |  | 170^a percent of control | 226^a percent of control | 198^a percent of control | 198^a percent of control | 116^a percent of control | 122^a percent of control | 
3 | Fc1cccc(F)c1C(F)C1CNC1 (stereo not shown) [Example 7, 3-[(2,6-Difluorophenyl)(Fluoro)Methyl]Azetidine Oxalate Salt] | 404 ± 21% | 860 ± 283% | 570 ± 6% | 213% | 130% |  |  |  |  |  |  | 
4 | Cl.Fc1ccc(C(F)C2CNC2)cc1F (stereo not shown) [Example 5, 3-[(3,4-Difluorophenyl)(Fluoro)Methyl]Azetidine Hydrochloric Acid Salt] | 234% | 330 ± 75% |  | 435 ± 61% | 136 ± 4% |  |  |  |  |  |  | 480^a percent of control
5 | CCN1CC(C(F)c2cccc(F)c2F)C1 (stereo not shown) [Example 16, 3-[(2,3-Difluorophenyl)(Fluoro)Methyl]-1-Ethylazetidine Hydrochloric Acid Salt] | 197 ± 124% | 229 ± 23% | 272 ± 58% | 313 ± 23% | 139 ± 4% |  |  |  |  |  |  | 
6 | Fc1ccc(C(F)C2CNC2)c(F)c1F (stereo not shown) [Example 11, 3-[Fluoro(2,3,4-Trifluorophenyl)Methyl]Azetidine Oxalate Salt] | 236% | 263% | 342% | 366% | 85 ± 14% |  |  |  |  |  |  | 
7 | CCN1CC(C(F)c2cc(F)cc(F)c2)C1 (stereo not shown) [Example 19, 3-[(3,5-Difluorophenyl)(Fluoro)Methyl]-1-Ethylazetidine Oxalate Salt] | 212 ± 15% | 399 ± 30% | 354 ± 54% | 170 ± 63% | 144 ± 10% |  |  |  |  |  |  | 
8 | CCCN1CC(C(F)c2cc(F)cc(F)c2)C1 (stereo not shown) [Example 20, 3-[(3,5-Difluorophenyl)(Fluoro)Methyl]-1-Propylazetidine Oxalate Salt] | 171% | 362% | 264% | 145% | 111% |  |  |  |  |  |  | 
9 | CCN1CC(C(F)c2cc(F)cc(F)c2F)C1 (stereo not shown) [Example 22, 1-Ethyl-3-[Fluoro(2,3,5-Trifluorophenyl)Methyl]Azetidine Oxalate Salt] | 140% | 654 ± 212% |  |  | 158% |  |  |  |  |  |  | 
10 | Fc1ccc(C(F)C2CNC2)c(F)c1 (stereo not shown) [Example 8, 3-[(2,4-Difluorophenyl)(Fluoro)Methyl]Azetidine Oxalate Salt] | 428 ± 118% | 549 ± 163% | 400 ± 28% | 402 ± 12% | 133 ± 15% |  |  |  |  |  |  | 
